From US6514967B1 (priority 1997, dated 2003)

Legend:
[1] = Concentration in brain and plasma after systemic injection; format: in vivo, rats of the Wistar strain
Procedure: Experimental preparation: [Amer. J. Physiol., 267 (1994) R164-R170]
Under general anaesthesia, catheters made from tubes of flexible and inert polyethylene PE50 (Clay Adams) are placed in the right carotid artery of male rats of the Wistar strain weighing 250 g, and are slid under the skin to emerge at the nape at a site that is inaccessible to the animal. The injections are carried out 5 days later, to allow the animals optimum post-operative recovery. This arrangement permits easy and very quick systemic injections on the animal while it is conscious.
At the specified time after injection, the animals are killed by decapitation. The brains are removed in less than a minute without further fractionation. The meninges are quickly separated and the brains are rinsed in a large volume of physiological serum before being frozen at −30° C. The blood is collected on EDTA in tubes maintained at 0° C. After centrifugation, the plasma is separated and aliquots are preserved at −30° C.
After thawing, the brains are weighed and homogenized in the cold in 3 volumes of NaOH (0.1N), using an Ultra-Turrax pulverizer. An internal standard, at a suitable concentration, is added to each sample to allow for individual variations in extraction. The pulverizates are directly extracted three times with a total of 6 volumes of ethyl acetate, followed each time by centrifugation at high speed.
Apart from the stage of pulverizing, the plasmas are treated similarly.
The extracts are filtered through a 0.22 μm Millipore membrane and, after evaporation of the solvent under a nitrogen stream, the dry extracts are stored at −30° C.
One of the compounds of the invention (IC 180), diluted in physiological serum, is injected at a concentration equal to 20 mg.kg^−1. […] Its concentration decreases by about 50% in the brain, 1 hour after injection. […] The ratio of the concentrations between the brain and the plasma therefore increases between 30 and 60 minutes after injection.

xanthine oxidase = xanthine oxidase (Homo sapiens, UniProt P47989); assay: Action of the derivatives on xanthine oxidase; format: biochemical
Sequence of xanthine oxidase (P47989 whole entry, species assumed): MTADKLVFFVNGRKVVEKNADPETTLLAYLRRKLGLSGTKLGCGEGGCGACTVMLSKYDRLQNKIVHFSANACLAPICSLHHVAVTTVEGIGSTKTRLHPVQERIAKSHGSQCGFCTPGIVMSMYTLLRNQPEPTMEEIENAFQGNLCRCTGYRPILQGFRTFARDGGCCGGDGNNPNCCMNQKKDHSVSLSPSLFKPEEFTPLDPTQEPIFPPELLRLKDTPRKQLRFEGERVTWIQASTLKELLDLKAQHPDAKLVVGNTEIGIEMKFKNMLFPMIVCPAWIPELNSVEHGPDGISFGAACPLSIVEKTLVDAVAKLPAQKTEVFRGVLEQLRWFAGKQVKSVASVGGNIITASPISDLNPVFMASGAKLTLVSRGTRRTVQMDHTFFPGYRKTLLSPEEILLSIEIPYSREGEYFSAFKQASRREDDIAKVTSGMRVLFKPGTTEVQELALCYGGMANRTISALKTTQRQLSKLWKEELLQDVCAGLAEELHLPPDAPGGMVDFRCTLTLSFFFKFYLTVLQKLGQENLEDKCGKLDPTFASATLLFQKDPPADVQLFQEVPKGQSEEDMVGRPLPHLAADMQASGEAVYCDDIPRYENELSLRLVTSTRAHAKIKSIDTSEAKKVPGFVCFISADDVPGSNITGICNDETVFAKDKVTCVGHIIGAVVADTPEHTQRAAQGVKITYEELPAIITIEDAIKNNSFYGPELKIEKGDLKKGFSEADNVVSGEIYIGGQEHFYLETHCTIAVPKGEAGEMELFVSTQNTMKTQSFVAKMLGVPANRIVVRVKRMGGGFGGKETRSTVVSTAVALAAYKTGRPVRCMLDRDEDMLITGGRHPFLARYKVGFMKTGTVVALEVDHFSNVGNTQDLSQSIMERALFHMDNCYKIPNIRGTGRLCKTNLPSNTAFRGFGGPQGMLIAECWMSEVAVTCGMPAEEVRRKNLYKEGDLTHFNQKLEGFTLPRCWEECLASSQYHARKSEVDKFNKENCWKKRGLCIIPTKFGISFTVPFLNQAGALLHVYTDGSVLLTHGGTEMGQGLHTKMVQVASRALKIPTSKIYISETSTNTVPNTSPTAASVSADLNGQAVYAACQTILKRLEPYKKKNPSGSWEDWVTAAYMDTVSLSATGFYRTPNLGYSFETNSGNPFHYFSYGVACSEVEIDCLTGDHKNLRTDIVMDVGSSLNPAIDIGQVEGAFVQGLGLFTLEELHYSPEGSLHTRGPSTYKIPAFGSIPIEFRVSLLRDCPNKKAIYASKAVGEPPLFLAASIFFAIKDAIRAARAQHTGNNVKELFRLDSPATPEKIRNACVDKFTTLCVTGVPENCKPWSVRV
Procedure: Action of the derivatives on xanthine oxidase:
(Free Radical Biology & Medicine, Vol 20, No 1, pp.35-43, 1996)
[…] of xanthine 20 mM in soda 0.1N and […] of the test product in phosphate buffer at pH 7.4 were placed in a final volume of 2 ml. Reaction is started by adding […] of solution of xanthine oxidase at 0.56 U/ml. Formation of […] is monitored by UV spectroscopy at 290 nm. Allopurinol is a reference inhibitor.

[2] = Chemical test of capture of OH• radicals (deoxyribose competition); format: biochemical; conditions: rate constant of reaction of the competitor with OH•; competition with 2-deoxyribose, UV at 532 nm
Procedure: A) Chemical test of capture of OH^• radicals:
(Free Rad. Res. Comms., Vol. 14, Nos. 5-6, pp. 363-372)
[…] of buffer (30 mM Na2HPO4.7H2O, 40 mM NaCl, 0.1 mM EDTA), 125 ml of deoxyribose at 2.10^−3 mM and 125 ml of 4-times concentrated solution of radical inhibitor (final concentration from 0 to 0.5 mM) were placed in glass haemolysis tubes cooled on an ice bath. […] of FeSO4 at 10^−3 mM (in water) is added at time 0. After 15 min of incubation the reaction is stopped with 250 ml of trichloroacetic acid at 3%, to which is added 250 ml of solution of thiobarbituric acid at 1.5% (in water). The tubes are kept at 100° C. for 10 min then cooled for detection with UV at 532 nm. The linear relation A0/A=1+ks/dkr [(competitor)/(2-deoxyribose)] was used, where A0 and A denote the absorbances in the absence and in the presence of competitor, ks is the rate constant of reaction of the competitor with OH• and kdr=1.9*10^9 M^−1 sec^−1 is the rate constant of reaction of 2-deoxyribose with OH•. Thus ks is equal to the gradient of the straight line A0/A f((competitor)/(2-deoxyribose)) multiplied by kdr.

[3] = 30 min after injection of 20 mg.kg^−1
[4] = 1 hour after injection of 20 mg.kg^−1

## c1cc2c(s1)CCCC2N1CCOCC1 (centres unmarked) [IC180, morpholine-4-tetrahydro-4,5,6,7-benzothiophene]
[1]; [3]
  detection in the brain: detected preferentially in the brain
  detection in the plasma: clearly identifiable in the plasma
[1]; [4]
  decrease of concentration in the brain: about 50%
  detection in the plasma: can only be detected very slightly
[1]; between 30 and 60 minutes after injection, FIG. 10
  ratio of the concentrations between the brain and the plasma: increases
Xanthine oxidase; read-out: % inhibition 100 μM
  inhibition at 100 µM: 0%
Xanthine oxidase; read-out: % inhibition 500 μM
  inhibition at 500 µM: 2%
[2]
  ks (10^−9M^−1 sec^−1) (±SEM): 3.75 ± 0.33 10^−9M^−1 sec^−1
